The source of these data is patent US8518980B2, “Treatment of Duchenne muscular dystrophy” (Summit Corporation PLC, priority 2006, dated 2013).

Molecules are shown by their SMILES.

For the first assay, the system named is Utrophin A promoter linked to a luciferase reporter gene (H2K/mdx/Utro A reporter cell line). Put plainly: Luciferase reporter assay (murine H2K cells). The note with it: Mus musculus, H2K mdx. A general note: In a reporter assay the amount or activity of a reporter protein is the signal.
Regarding `CCc1ccc2oc(-c3cccc(NC(C)=O)c3)nc2c1` [Example 642, N-(3-(5-ethylbenzo[d]oxazol-2-yl)phenyl)acetamide], the activity at 10 µM fell in the range of 301 to 400%.
On the same count and under the same terms, the figure for `Cn1c(CNc2ccc(Cl)cc2)nc2ccccc21` [Example 666, 4-chloro-N-((1-methyl-1H-benzo[d]imidazol-2-yl)methyl)aniline] is 201 to 300%.
Same read-out and setting: under `O=C(Nc1ccccc1F)C(=O)c1c[nH]c2ccccc12` [Example 689, N-(2-fluorophenyl)-2-(1H-indol-3-yl)-2-oxoacetamide] stands 201 to 300%.
As for `Cc1nc2ccc(NC(=O)Nc3ccccc3)cc2o1` [Example 466, 1-(2-methylbenzo[d]oxazol-6-yl)-3-phenylurea], the activity at 10 µM is below 200%.
The same measure, in the same setting: under `COc1ccc(CSc2nc3ccccc3n2C)cc1F` [Example 645, 2-(3-fluoro-4-methoxybenzylthio)-1-methyl-1H-benzo[d]imidazole] stands 301 to 400%.
Same read-out and setting: under `COc1ccc(-c2nc3ccccc3n2C)cc1OC` [Example 521, 2-(3,4-dimethoxyphenyl)-1-methyl-1H-benzo[d]imidazole] stands below 200%; under `COc1ccc2oc(-c3cccc(N)c3)nc2c1` [Example 630, 3-(5-methoxybenzo[d]oxazol-2-yl)aniline], above 401%; under `CC(=O)Nc1ccc2oc(-c3ccc(Cl)cc3Cl)nc2c1` [Example 517, N-(2-(2,4-dichlorophenyl)benzo[d]oxazol-5-yl)acetamide], 201 to 300%.
`O=C(Nc1ccccc1F)c1sc2ccccc2c1Cl` [Example 621, 3-chloro-N-(2-fluorophenyl)benzo[b]thiophene-2-carboxamide]: the activity at 10 µM is above 401%.
For the compound `O=S(=O)(c1ccc(-c2nc3ccccc3s2)cc1)N1CCCCC1` [Example 516, 2-(4-(piperidin-1-ylsulfonyl)phenyl)benzo[d]thiazole], the activity at 10 µM is 201 to 300%.
Same read-out and setting: the figure for `Cc1ccc2nc(-c3ccc(O)cc3)sc2c1` [Example 643, 4-(6-methylbenzo[d]thiazol-2-yl)phenol] is 301 to 400%; for `O=C(COc1ccc2c(c1)OCO2)Nc1nc2ccccc2s1` [Example 614, 2-(Benzo[d][1,3]dioxol-5-yloxy)-N-(benzo[d]thiazol-2-yl)acetamide] it is below 200%; for `Nc1ccc2oc(-c3cccc(Cl)c3)nc2c1` [Example 489, 2-(3-chlorophenyl)benzo[d]oxazol-5-amine] it is 201 to 300%.
Same read-out and setting: the figure for `Cc1cc(-c2nc3cc(Cl)ccc3o2)ccc1[N+](=O)[O-]` [Example 539, 5-chloro-2-(3-methyl-4-nitrophenyl)benzo[d]oxazole] is below 200%.
Regarding `CN(C)c1ccc(-c2nc3ccccc3[nH]2)cc1` [Example 498, 4-(1H-benzo[d]imidazol-2-yl)-N,N-dimethylaniline], the activity at 10 µM is below 200%.
Still for that read-out and setting: the figure for `Nc1ccc(-c2nc3ccccc3o2)cc1` [Example 478, 4-(benzo[d]oxazol-2-yl)aniline] is 201 to 300%; for `COc1cccc(-c2nc3ccccc3s2)c1` [Example 606, 2-(3-Methoxyphenyl)benzo[d]thiazole] it is 301 to 400%; for `Cc1ccc(-c2nc3cc(N)ccc3o2)cc1C` [Example 603, 2-(3,4-Dimethylphenyl)benzo[d]oxazol-5-amine] it is 301 to 400%.
Still for that read-out and setting: the figure for `Cc1ccc2oc(-c3cccs3)nc2c1` [Example 612, 5-Methyl-2-(thiophen-2-yl)benzo[d]oxazole] is 201 to 300%; for `c1csc(-c2nc3ccccc3[nH]2)c1` [Example 463, 2-(thiophen-2-yl)-1H-benzo[d]imidazole] it is below 200%.
Still for that read-out and setting: the figure for `O=C(CSc1nc2ccccc2s1)N1CCCCC1` [Example 617, 2-(benzo[d]thiazol-2-ylthio)-1-(piperidin-1-yl)ethanone] is above 401%; for `Cc1cc2nc(-c3cc(N)ccc3O)oc2cc1C` [Example 559, 4-amino-2-(5,6-dimethylbenzo[d]oxazol-2-yl)phenol] it is 301 to 400%; for `O=C(Nc1ccc(-c2nc3ccccc3[nH]2)cc1)c1ccc2c(c1)OCO2` [Example 540, N-(4-(1H-benzo[d]imidazol-2-yl)phenyl)benzo[d][1,3]dioxole-5-carboxamide] it is below 200%.
On to `Cc1nn(-c2nc3ccccc3[nH]2)c(N)c1-c1ccccc1` [Example 659, 1-(1H-benzo[d]imidazol-2-yl)-3-methyl-4-phenyl-1H-pyrazol-5-amine], for which the activity at 10 µM was 301 to 400%.
Same read-out and setting: the figure for `CN(C)c1ccc(-c2nc3ccccc3o2)cc1` [Example 486, 4-(benzo[d]oxazol-2-yl)-N,N-dimethylaniline] is below 200%.
Take `Cc1cc(-c2nc3ccccc3s2)ccc1[N+](=O)[O-]` [Example 599, 2-(3-Methyl-4-nitrophenyl)benzo[d]thiazole]: the activity at 10 µM is above 401%.
Still for that read-out and setting: under `Cc1ccc2nc(-c3ccc(C)c(N)c3)oc2c1` [Example 635, 2-methyl-5-(6-methylbenzo[d]oxazol-2-yl)aniline] stands 301 to 400%; under `O=C(Nc1nc2ccccc2s1)c1cc2ccccc2o1` [Example 626, N-(benzo[d]thiazol-2-yl)benzofuran-2-carboxamide], above 401%.
On the same count and under the same terms, under `CC(=O)Nc1cccc(-c2nc3ccccc3[nH]2)c1` [Example 503, N-(3-(1H-benzo[d]imidazol-2-yl)phenyl)acetamide] stands below 200%; under `CC(=O)Nc1ccc(-c2nc3ccccc3[nH]2)cc1` [Example 591, N-(4-(1H-Benzo[d]imidazol-2-yl)phenyl)acetamide], 301 to 400%.
Consider `Clc1ccc(OCc2nc3ccccc3[nH]2)c(Cl)c1` [Example 461, 2-((2,4-dichlorophenoxy)methyl)-1H-benzo[d]imidazole], for which the activity at 10 µM is 301 to 400%.
With `O=C(Nc1nc2ccccc2s1)c1cc(Br)ccc1Cl` [Example 671, N-(benzo[d]thiazol-2-yl)-5-bromo-2-chlorobenzamide], the activity at 10 µM lay in the range of 201 to 300%.
Same read-out and setting: the figure for `Nc1c(C(=O)Nc2ccccc2F)sc2nc3c(cc12)CCC3` [Example 673, 3-amino-N-(2-fluorophenyl)-6,7-dihydro-5H-cyclopenta[e]thieno[2,3-b]pyridine-2-carboxamide] is 201 to 300%; for `Cc1ccc(C(=O)Nc2nc3ccccc3s2)c(Cl)c1` [Example 567, N-(benzo[d]thiazol-2-yl)-2-chloro-4-methylbenzamide] it is below 200%.
The same measure, in the same setting: under `CCc1ccc2oc(-c3ccc(N)cc3)nc2c1` [Example 553, 4-(5-ethylbenzo[d]oxazol-2-yl)aniline] stands above 401%; under `Cc1cc2nc(-c3cccc(NC(=O)c4ccco4)c3)oc2cc1C` [Example 623, N-(3-(5,6-dimethylbenzo[d]oxazol-2-yl)phenyl)furan-2-carboxamide], above 401%; under `Nc1ccc2nc(-c3cccc(Cl)c3)oc2c1` [Example 598, 2-(3-Chlorophenyl)benzo[d]oxazol-6-amine], 301 to 400%.
With `Cn1c(-c2ccc(N)cc2)nc2cc(N)ccc21` [Example 490, 2-(4-aminophenyl)-1-methyl-1H-benzo[d]imidazol-5-amine], the activity at 10 µM is below 200%.
On to `c1cc(NCc2ccncc2)cc(-c2nc3ccccc3s2)c1` [Example 647, 3-(benzo[d]thiazol-2-yl)-N-(pyridin-4-ylmethyl)aniline], for which the activity at 10 µM fell in the range of 301 to 400%.
Same read-out and setting: the figure for `CCC(=O)Nc1cccc(-c2nc3cc(C)ccc3o2)c1` [Example 644, N-(3-(5-methylbenzo[d]oxazol-2-yl)phenyl)propionamide] is 301 to 400%.
Same read-out and setting: under `c1ccc(-c2nnc(SCc3nc4ccccc4[nH]3)o2)cc1` [Example 530, 2-((1H-benzo[d]imidazol-2-yl)methylthio)-5-phenyl-1,3,4-oxadiazole] stands below 200%; under `CCC(C)C(=O)Nc1ccc(-c2nc3ccccc3[nH]2)cc1` (stereo not shown) [Example 631, N-(4-(1H-benzo[d]imidazol-2-yl)phenyl)-2-methylbutanamide], above 401%; under `Nc1ccc(-c2nc3cc(Cl)cc(Cl)c3o2)cc1` [Example 518, 4-(5,7-dichlorobenzo[d]oxazol-2-yl)aniline], 201 to 300%.
`COc1ccc(-c2nc3cc([N+](=O)[O-])ccc3[nH]2)cc1` [Example 586, 2-(4-Methoxyphenyl)-5-nitro-1H-benzo[d]imidazole]: the activity at 10 µM was in the range of 201 to 300%.
Consider `CCn1c(C)nc2cc(-c3ccccc3)ccc21` [Example 634, 1-ethyl-2-methyl-5-phenyl-1H-benzo[d]imidazole], for which the activity at 10 µM was in the range of 301 to 400%.
For the compound `CCC(=O)Nc1ccc(-c2nc3ccccc3s2)cc1` [Example 667, N-(4-(benzo[d]thiazol-2-yl)phenyl)propionamide], the activity at 10 µM was 201 to 300%.
With `Cc1nc(Nc2nc3ccccc3o2)nc2c1CCC2` [Example 678, N-(4-methyl-6,7-dihydro-5H-cyclopenta[d]pyrimidin-2-yl)benzo[d]oxazol-2-amine], the activity at 10 µM lay within 201 to 300%.
For the compound `Nc1ccc2oc(-c3ccccc3F)nc2c1` [Example 569, 2-(2-fluorophenyl)benzo[d]oxazol-5-amine], the activity at 10 µM was in the range of 301 to 400%.
The same measure, in the same setting: the figure for `CCC(C)c1ccc2oc(-c3ccc(N)cc3)nc2c1` (stereo not shown) [Example 609, 4-(5-Sec-butylbenzo[d]oxazol-2-yl)aniline] is 301 to 400%; for `Cc1ccc2nc(-c3ccc(NC(=O)c4cccnc4)cc3)sc2c1` [Example 638, N-(4-(6-methylbenzo[d]thiazol-2-yl)phenyl)nicotinamide] it is 301 to 400%; for `Cc1cc2nc(-c3ccc(N)cc3O)oc2cc1C` [Example 610, 5-Amino-2-(5,6-dimethylbenzo[d]oxazol-2-yl)phenol] it is above 401%.

The same assay, now with this note: Table 2; luciferase level relative to control; final concentration of 10 μM.
For `O=C(c1ccccc1)c1ccc2nc(-c3ccccc3)[nH]c2c1` [Example 581, Phenyl (2-phenyl-1H-benzo[d]imidazol-6-yl)methanone], the Activity result is recorded as “+ (Up to 200% relative to control)”.
